# Laboratory results taken from ChEMBL document CHEMBL1152592, “Design, synthesis and biological evaluations of novel 7-[3-(1-aminocycloalkyl)pyrrolidin-1-yl]-6-desfluoro-8-methoxyquinolones with potent antibacterial activity against multi-drug resistant Gram-positive bacteria” (Bioorg Med Chem, 2009).
# Tests used:
# Enterococcus faecium = assay: Antibacterial activity against vancomycin-resistant Enterococcus faecium after 18 hrs by twofold microbroth dilution method; type: functional
# Streptococcus pneumoniae [1] = assay: Antibacterial activity against penicillin-intermediate resistant Streptococcus pneumoniae after 18 hrs by twofold microbroth dilution method; type: functional
# Enterococcus faecalis [2] = assay: Antibacterial activity against vancomycin-resistant Enterococcus faecalis after 18 hrs by twofold microbroth dilution method; type: functional
# Staphylococcus aureus [3] = assay: Antibacterial activity against ciprofloxacin, methicillin-resistant Staphylococcus aureus after 18 hrs by twofold microbroth dilution method; type: functional
# DNA gyrase subunit A = DNA gyrase subunit A (Staphylococcus aureus, UniProt P20831, S84L); assay: Inhibition of Staphylococcus aureus DNA gyrase Ser84Leu mutant
# Streptococcus pneumoniae [4] = assay: Antibacterial activity against Streptococcus pneumoniae J-24 after 18 hrs by twofold microbroth dilution method; type: functional; conditions: J-24, 18 h
# DNA gyrase = DNA gyrase (Staphylococcus aureus, UniProt P0A0K8+P20831); assay: Inhibition of Staphylococcus aureus wild type DNA gyrase; type: protein-complex assay
# Staphylococcus aureus [5] = assay: Antibacterial activity against Staphylococcus aureus FDA 209-P after 18 hrs by twofold microbroth dilution method; type: functional
# Streptococcus mitis = assay: Antibacterial activity against Streptococcus mitis IID685 after 18 hrs by twofold microbroth dilution method; type: functional; conditions: IID685, 18 h
# Streptococcus pyogenes = assay: Antibacterial activity against Streptococcus pyogenes G-36 after 18 hrs by twofold microbroth dilution method; type: functional; conditions: G-36, 18 h
# Escherichia coli = assay: Antibacterial activity against Escherichia coli NIHJ after 18 hrs by twofold microbroth dilution method; type: functional
# Klebsiella pneumoniae = assay: Antibacterial activity against Klebsiella pneumoniae type 2 after 18 hrs by twofold microbroth dilution method; type: functional; conditions: type 2, 18 h
# Staphylococcus aureus [6] = assay: Selectivity ratio of IC50 for Staphylococcus aureus DNA gyrase Ser84Leu mutant to IC50 for Staphylococcus aureus wild type DNA gyrase
# [7] = test system: Staphylococcus epidermidis; assay: Antibacterial activity against Staphylococcus epidermidis 56500 after 18 hrs by twofold microbroth dilution method; type: functional; conditions: Staphylococcus epidermidis, 56500, 18 h
# Staphylococcus aureus [8] = assay: Antibacterial activity against levofloxacin, methicillin-resistant Staphylococcus aureus after 18 hrs by twofold microbroth dilution method; type: functional
# Staphylococcus aureus [9] = assay: Selectivity ratio of IC50 for Staphylococcus aureus DNA topoisomerase 4 Ser80Phe mutant to IC50 for Staphylococcus aureus wild type DNA topoisomerase 4
# Enterococcus faecalis [10] = assay: Antibacterial activity against Enterococcus faecalis ATCC 19433 after 18 hrs by twofold microbroth dilution method; type: functional; conditions: ATCC19433, 18 h
# [11] = Inhibition of Staphylococcus aureus DNA topoisomerase 4 Ser80Phe mutant
# Pseudomonas aeruginosa = assay: Antibacterial activity against Pseudomonas aeruginosa PAO1 after 18 hrs by twofold microbroth dilution method; type: functional; conditions: PAO1, 18 h
# [12] = Inhibition of Staphylococcus aureus wild type DNA topoisomerase 4
# [13] = Aqueous […] of the compound; type: physicochemical; conditions: aqueous (not further specified)
# Mus musculus [14] = assay: Toxicity in Slc:ddY mouse at 50 mg/kg, iv; type: organism-based; parameters: dose 50 mg/kg, route intravenous; conditions: in vivo
# Mus musculus [15] = assay: Toxicity in Slc:ddY mouse at 100 mg/kg, iv; type: organism-based; parameters: dose 100 mg/kg, route intravenous; conditions: in vivo
# Mus musculus [16] = assay: Toxicity in Slc:ddY mouse at 150 mg/kg, iv; type: organism-based; parameters: dose 150 mg/kg, route intravenous; conditions: in vivo
SMILES,MIC50 (Enterococcus faecium) [µg/mL],MIC90 (Enterococcus faecium) [µg/mL],MIC50 (Streptococcus pneumoniae [1]) [µg/mL],MIC90 (Streptococcus pneumoniae [1]) [µg/mL],MIC50 (Enterococcus faecalis [2]) [µg/mL],MIC90 (Enterococcus faecalis [2]) [µg/mL],MIC50 (Staphylococcus aureus [3]) [µg/mL],MIC90 (Staphylococcus aureus [3]) [µg/mL],MIC (Streptococcus pneumoniae [4]) [µg/mL],MIC (Staphylococcus aureus [5]) [µg/mL],MIC (Streptococcus mitis) [µg/mL],MIC (Streptococcus pyogenes) [µg/mL],MIC (Escherichia coli) [µg/mL],MIC (Klebsiella pneumoniae) [µg/mL],MIC [7] [µg/mL],MIC50 (Staphylococcus aureus [8]) [µg/mL],MIC80 (Staphylococcus aureus [8]) [µg/mL],MIC90 (Staphylococcus aureus [8]) [µg/mL],MIC (Enterococcus faecalis [10]) [µg/mL],MIC (Pseudomonas aeruginosa) [µg/mL],also measured
NCC[C@H](O)C(=O)N[C@@H]1C[C@H](N)[C@@H](O[C@H]2O[C@H](CN)CC[C@H]2N)[C@H](O)[C@H]1O[C@H]1O[C@H](CO)[C@@H](O)[C@H](N)[C@H]1O [ARBEKACIN],16,32,32,64,2,2,8,32,,,,,,,,,,,,,
C[C@H]1NCc2cc(-c3ccc4c(=O)c(C(=O)O)cn(C5CC5)c4c3OC(F)F)ccc21 [GARENOXACIN],8,32,0.12,0.12,4,8,1,32,0.025,0.025,0.05,0.1,0.012,0.05,0.05,2,64,64,0.2,0.78,IC50 (DNA gyrase subunit A): > 1200 µM; IC50 (DNA gyrase): 8.42 µM; Ratio IC50 (Staphylococcus aureus [6]): > 143; Ratio IC50 (Staphylococcus aureus [9]): 18.2; IC50 [11]: 20.7 µg/mL; IC50 [12]: 1.14 µg/mL
CN[C@H](CC(C)C)C(=O)N[C@H]1C(=O)N[C@@H](CC(N)=O)C(=O)N[C@H]2C(=O)N[C@H]3C(=O)N[C@H](C(=O)N[C@H](C(=O)O)c4cc(O)cc(O)c4-c4cc3ccc4O)[C@H](O)c3ccc(c(Cl)c3)Oc3cc2cc(c3O[C@@H]2O[C@H](CO)[C@@H](O)[C@H](O)[C@H]2O[C@H]2C[C@](C)(N)[C@H](O)[C@H](C)O2)Oc2ccc(cc2Cl)[C@H]1O [VANCOMYCIN],> 128,> 128,0.5,0.5,> 128,> 128,1,2,,,,,,,,1,1,1,,,
CC(=O)NC[C@H]1CN(c2ccc(N3CCOCC3)c(F)c2)C(=O)O1 [LINEZOLID],2,2,1,2,2,2,1,1,,,,,,,,,,,,,
COc1c(N2C[C@@H]3CCCN[C@@H]3C2)c(F)cc2c(=O)c(C(=O)O)cn(C3CC3)c12 [MOXIFLOXACIN],4,32,,,16,32,2,32,0.025,0.013,0.1,0.2,0.006,0.05,0.1,4,32,32,0.2,0.78,IC50 [11]: 24.2 µg/mL; IC50 [12]: 1.36 µg/mL
CNC1([C@@H]2CCN(c3c(F)cc4c(=O)c(C(=O)O)cn([C@@H]5C[C@@H]5F)c4c3OC)C2)CC1,,,,,,,,,≤ 0.003,≤ 0.003,0.003,0.003,≤ 0.003,0.012,0.006,,,,0.025,0.2,solubility [13]: 173 µg/mL; Activity (Mus musculus [14]): Toxic; Activity (Mus musculus [15]): Toxic; Activity (Mus musculus [16]): Toxic
O=C(O)c1cn(C2CC2)c2cc(N3CCNCC3)c(F)cc2c1=O [CIPROFLOXACIN],,,,,,,,,0.39,0.05,0.78,1.56,≤ 0.003,0.025,0.2,> 64,> 64,> 64,0.78,0.05,IC50 [11]: 22.4 µg/mL; IC50 [12]: 1.24 µg/mL
